The test deals with cofilin (Homo sapiens, UniProt P23528). In words: Cofilin inhibition by the compound still protected on one side (no method given). The note with it: one side of the Formula I structure still protected (TBS).

Structures are written as SMILES.

Sequence of cofilin (P23528 whole entry): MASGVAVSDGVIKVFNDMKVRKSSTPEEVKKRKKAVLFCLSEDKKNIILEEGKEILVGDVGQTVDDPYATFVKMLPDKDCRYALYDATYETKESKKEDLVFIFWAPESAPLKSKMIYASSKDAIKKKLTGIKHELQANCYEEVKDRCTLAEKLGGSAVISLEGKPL

Turning to `CC(C)(C)c1ccc(O)c(CN(Cc2cc(C(C)(C)C)ccc2O[Si](C)(C)C(C)(C)C)C2CCC(NC(N)=O)CC2)c1` (stereo not shown) [SZ-2], the cofilin inhibition entry was “still works to inhibit cofilin”.
